Measurements published in patent US20100087411A1, “SUBSTITUTED SAPOGENINS AND THEIR USE” (Phytopharm PLC, priority 2000, published 2010).

System: m2 receptor
Experiment: Expression of m2 receptors on CHO cells transfected with DNA for the m2 receptor (tritiated QNB binding)
Assay type: cell-based
Parameters: key: Active: “active” means increase over the control; Inactive: “inactive” means same effect as control
Conditions: DMSO control, range of final concentrations
Description: Substituted sapogenins of the present invention have also been tested for activity in a number of in-vitro assays. The assays/experiments that were considered of key importance in determining possible activity in the elevation of membrane bound receptor numbers were as follows: • Chinese hamster ovary (CHO) cells transfected with the a DNA fragment coding for a muscarinic receptor. The cell line used for the majority of the experiments was a cell line expressing the m2 receptor. The methods and the results of these experiments are now described in turn.
The effects of various compounds on the expression of m2 receptors on CHO cells transfected with DNA for the m2 receptor were investigated. Receptor numbers were assayed using tritiated QNB binding and subtracting non-specific binding. Compounds were dissolved in DMSO and DMSO was used as a control. Compounds were tested at a range of final concentrations. Compounds were also tested in the presence and absence of tamoxifen to try to distinguish an oestrogen receptor mediated mechanism The results are summarised in the Table I below.

Structure (SMILES) | Effect on receptor expression
C[C@@H]1CC[C@@]2(OC1)O[C@H]1C[C@H]3[C@@H]4CC[C@@H]5CC(F)(F)CC[C@]5(C)[C@H]4CC[C@]3(C)[C@H]1[C@@H]2C [3,3-difluoro-5β,20α,22α,25R-spirostane] | Active
C[C@@H]1CC[C@@]2(OC1)O[C@H]1C[C@H]3[C@@H]4CC[C@@H]5C[C@H](N)CC[C@]5(C)[C@H]4CC[C@]3(C)[C@H]1[C@@H]2C [3α-amino-5β,20α,22α,25R-spirostane] | Active
CC1CCC2(OC1)OC1CC3C4CCC5CC(N=[N+]=[N-])CCC5(C)C4CCC3(C)C1C2C (stereo not drawn) [3α-azido-5β,20α,22α,25R-spirostane] | Active
C[C@@H]1CC[C@@]2(OC1)O[C@H]1C[C@H]3[C@@H]4CC[C@H]5C[C@H](F)CC[C@]5(C)[C@H]4CC[C@]3(C)[C@H]1[C@@H]2C [3α-fluoro-5α,20α,22α,25R-spirostane] | Inactive
C[C@@H]1CC[C@@]2(OC1)O[C@H]1C[C@H]3[C@@H]4CC[C@@H]5C[C@H](NS(C)(=O)=O)CC[C@]5(C)[C@H]4CC[C@]3(C)[C@H]1[C@@H]2C [3α-methylsulphonylamino-5β,20α,22α,25R-spirostane] | Active
C[C@@H]1CC[C@@]2(OC1)O[C@H]1C[C@H]3[C@@H]4CC[C@@H]5C[C@@H](F)CC[C@]5(C)[C@H]4CC[C@]3(C)[C@H]1[C@@H]2C [3β-fluoro-5β,20α,22α,25R-spirostane] | Active
C[C@H]1[C@H]2[C@H](C[C@H]3[C@@H]4CC[C@@H]5C[C@@H](O)CC[C@]5(C)[C@H]4CC[C@]23C)O[C@]12CCC(C)(C)CO2 [25-methyl-5β,20α,22α-spirostane-3β-ol] | Active
